The experiment addresses SMYD3 (Homo sapiens (Human), UniProt Q9H7B4). Nature of the experiment: SMYD3 biochemical assay (SPA, 3H-SAM methylation of MEKK2 protein substrate). The note with it: read-out: SMYD3 Biochem IC50 (μM)*. The method, boiled down:
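Native full-length human SMYD3 (E. coli-expressed, tags removed) was preincubated with compound for 30 min at room temperature in 25 mM Tris-Cl pH 8.0, 1 mM TCEP, 0.005% BSG, 0.005% Tween 20. Reaction was started with 3H-SAM plus GST-MEKK2, quenched with 100 uM unlabeled SAM, and read by SPA scintillation counting.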
The term IC50 denotes the concentration needed to halve the response being measured. Turning to `COC(=O)CCS(=O)(=O)N1CC[C@H](NC(=O)c2cc(C3CC3)on2)C[C@@H]1C` [compound 280, methyl 3-(((2S,4S)-4-(5-cyclopropylisoxazole-3-carboxamido)-2-methylpiperidin-1-yl)sulfonyl)propanoate], the IC50 turned out to be 4.85 µM.

In the case of `COCCCS(=O)(=O)N1CC[C@H](NC(=O)c2cc(C3CC3)on2)C[C@@H]1C` [compound 281, 5-cyclopropyl-N-((2S,4S)-1-((3-methoxypropyl)sulfonyl)-2-methylpiperidin-4-yl)isoxazole-3-carboxamide], the half-maximal inhibitory concentration (IC50) is 1.87 µM.

With `COC(=O)CCS(=O)(=O)N1CC[C@H](NC(=O)c2cc(C3CC3)on2)C[C@H]1C` [compound 282, methyl 3-(((2R,4S)-4-(5-cyclopropylisoxazole-3-carboxamido)-2-methylpiperidin-1-yl)sulfonyl)propanoate], the concentration for half-maximal inhibition (IC50) is more than 10 µM.

`COCCCS(=O)(=O)N1CC[C@H](NC(=O)c2cc(C3CC3)on2)C[C@H]1C` [compound 284, 5-cyclopropyl-N-((2R,4S)-1-((3-methoxypropyl)sulfonyl)-2-methylpiperidin-4-yl)isoxazole-3-carboxamide]: the IC50 was more than 10 µM.

As for `CC(C)OCCS(=O)(=O)N1CC[C@H](NC(=O)c2cc(C3CC3)on2)C[C@H]1C` [compound 285, 5-cyclopropyl-N-((2R,4S)-1-((2-isopropoxyethyl)sulfonyl)-2-methylpiperidin-4-yl)isoxazole-3-carboxamide], the half-inhibitory concentration (IC50) was more than 10 µM.

On to `C[C@H]1C[C@H](NC(=O)c2cc(C3CC3)on2)CCN1S(=O)(=O)c1ccc(Cl)nc1` [compound 287, N-((2S,4R)-1-((6-chloropyridin-3-yl)sulfonyl)-2-methylpiperidin-4-yl)-5-cyclopropylisoxazole-3-carboxamide], for which the half-maximal inhibitory concentration (IC50) is more than 10 µM.

For the compound `C[C@H]1C[C@H](NC(=O)c2cc(C3CC3)on2)CCN1S(=O)(=O)N1CCCC1` [compound 288, 5-cyclopropyl-N-((2S,4R)-2-methyl-1-(pyrrolidin-1-ylsulfonyl)piperidin-4-yl)isoxazole-3-carboxamide], the IC50 was more than 10 µM.

As for `CNS(=O)(=O)N1CC[C@@H](NC(=O)c2cc(C3CC3)on2)C[C@@H]1C` [compound 289, 5-cyclopropyl-N-((2S,4R)-2-methyl-1-(N-methylsulfamoyl)piperidin-4-yl)isoxazole-3-carboxamide], the IC50 is more than 10 µM.

As to `COC(=O)CCS(=O)(=O)N1CC[C@@H](NC(=O)c2cc(C3CC3)on2)C[C@@H]1C` [compound 290, methyl 3-(((2S,4R)-4-(5-cyclopropylisoxazole-3-carboxamido)-2-methylpiperidin-1-yl)sulfonyl)propanoate], the IC50 was more than 10 µM.

As to `C[C@H]1C[C@H](NC(=O)c2cc(C3CC3)on2)CCN1S(=O)(=O)CCC(F)(F)F` [compound 292, 5-cyclopropyl-N-((2S,4R)-2-methyl-1-((3,3,3-trifluoropropyl)sulfonyl)piperidin-4-yl)isoxazole-3-carboxamide], the concentration for half-maximal inhibition (IC50) is more than 10 µM.

For `CC(C)OCCS(=O)(=O)N1CC[C@@H](NC(=O)c2cc(C3CC3)on2)C[C@H]1C` [compound 296, 5-cyclopropyl-N-((2R,4R)-1-((2-isopropoxyethyl)sulfonyl)-2-methylpiperidin-4-yl)isoxazole-3-carboxamide], the half-maximal inhibitory concentration (IC50) amounted to 5.97 µM.

Take `CC[C@@H]1CN(C(=O)CCCN)CC[C@@H]1NC(=O)c1cc(C2CC2)on1` [compound 297, N-((3R,4S)-1-(4-aminobutanoyl)-3-ethylpiperidin-4-yl)-5-cyclopropylisoxazole-3-carboxamide]: the IC50 was determined as 1.8 µM.

Take `CC[C@@H]1CN(C(=O)CCCN)CC[C@H]1NC(=O)c1cc(C2CC2)on1` [compound 298, N-((3R,4R)-1-(4-aminobutanoyl)-3-ethylpiperidin-4-yl)-5-cyclopropylisoxazole-3-carboxamide]: the IC50 came out at 6.1 µM.

Regarding `CC[C@H]1CN(C(=O)CCCN)CC[C@H]1NC(=O)c1cc(C2CC2)on1` [compound 299, N-((3S,4R)-1-(4-aminobutanoyl)-3-ethylpiperidin-4-yl)-5-cyclopropylisoxazole-3-carboxamide], the IC50 worked out at 0.989 µM.

Take `CC[C@H]1CN(C(=O)CCCN)CC[C@@H]1NC(=O)c1cc(C2CC2)on1` [compound 300, N-((3S,4S)-1-(4-aminobutanoyl)-3-ethylpiperidin-4-yl)-5-cyclopropylisoxazole-3-carboxamide]: the 50% inhibitory concentration (IC50) was determined as 3.6 µM.

Turning to `NCCCC(=O)N1CCC(NC(=O)c2cc(C3CC3)on2)CC12CCCCC2` (stereo not drawn) [compound 301, N-(1-(4-aminobutanoyl)-1-azaspiro[5.5]undecan-4-yl)-5-cyclopropylisoxazole-3-carboxamide], the IC50 came out at 6.47 µM.

For `CC[C@@H]1CC(NC(=O)c2cc(C3CC3)on2)C[C@H](CC)N1C(=O)CCCN` (stereo partly drawn) [compound 302, N-((2S,6R)-1-(4-aminobutanoyl)-2,6-diethylpiperidin-4-yl)-5-cyclopropylisoxazole-3-carboxamide], the concentration for half-maximal inhibition (IC50) amounted to 6.93 µM.

As for `CC1CN(C(=O)[C@H]2CC[C@H](N)CC2)CC(C)C1NC(=O)c1cc(C2CC2)on1` (stereo partly drawn) [compound 303, N-(1-((1r,4r)-4-aminocyclohexane-1-carbonyl)-3,5-dimethylpiperidin-4-yl)-5-cyclopropylisoxazole-3-carboxamide], the IC50 turned out to be 1.78 µM.

Take `N[C@H]1CC[C@H](C(=O)N2CCC(NC(=O)c3cc(C4CC4)on3)C(C(F)(F)F)C2)CC1` (stereo partly drawn) [compound 304, N-(1-((1r,4r)-4-aminocyclohexane-1-carbonyl)-3-(trifluoromethyl)piperidin-4-yl)-5-cyclopropylisoxazole-3-carboxamide]: the half-inhibitory concentration (IC50) stood at 2.04 µM.

Regarding `C[C@H](C(=O)N1CC[C@@H](NC(=O)c2cc(C3CC3)on2)C[C@H]1C)C1CCNCC1` [compound 305, 5-cyclopropyl-N-((2R,4R)-2-methyl-1-((S)-2-(piperidin-4-yl)propanoyl)piperidin-4-yl)isoxazole-3-carboxamide], the IC50 amounted to 1.17 µM.

For the compound `C[C@@H]1C[C@H](NC(=O)c2cc(C3CC3)on2)CCN1C(=O)[C@H](C)C1CCNCC1` [compound 306, 5-cyclopropyl-N-((2R,4R)-2-methyl-1-((R)-2-(piperidin-4-yl)propanoyl)piperidin-4-yl)isoxazole-3-carboxamide], the IC50 came out at 0.852 µM.

As for `C[C@H](C(=O)N1CC[C@H](NC(=O)c2cc(C3CC3)on2)C[C@H]1C)C1CCNCC1` [compound 307, 5-cyclopropyl-N-((2R,4S)-2-methyl-1-((S)-2-(piperidin-4-yl)propanoyl)piperidin-4-yl)isoxazole-3-carboxamide], the IC50 is 0.928 µM.

For `C[C@@H]1C[C@@H](NC(=O)c2cc(C3CC3)on2)CCN1C(=O)[C@H](C)C1CCNCC1` [compound 308, 5-cyclopropyl-N-((2R,4S)-2-methyl-1-((R)-2-(piperidin-4-yl)propanoyl)piperidin-4-yl)isoxazole-3-carboxamide], the IC50 is 0.179 µM.

On to `C[C@H]1C[C@H](NC(=O)c2cc(C3CC3)on2)CCN1C(=O)CC(C)(C)CN` [compound 311, N-((2S,4R)-1-(4-amino-3,3-dimethylbutanoyl)-2-methylpiperidin-4-yl)-5-cyclopropylisoxazole-3-carboxamide], for which the IC50 is 1.62 µM.

In the case of `C[C@@H]1C[C@H](NC(=O)c2cc(C3CC3)on2)CCN1C(=O)CC(C)(C)CN` [compound 312, N-((2R,4R)-1-(4-amino-3,3-dimethylbutanoyl)-2-methylpiperidin-4-yl)-5-cyclopropylisoxazole-3-carboxamide], the half-maximal inhibitory concentration (IC50) was 0.416 µM.

With `C[C@@H]1C[C@@H](NC(=O)c2cc(C3CC3)on2)CCN1C(=O)CC(CN)c1ccccc1` (stereo partly drawn) [compound 313, N-((2R,4S)-1-(4-amino-3-phenylbutanoyl)-2-methylpiperidin-4-yl)-5-cyclopropylisoxazole-3-carboxamide], the IC50 was determined as 5.02 µM.

Take `C[C@H]1C[C@@H](NC(=O)c2cc(C3CC3)on2)CCN1S(=O)(=O)c1ccc(Cl)nc1` [compound 318, N-((2S,4S)-1-((6-chloropyridin-3-yl)sulfonyl)-2-methylpiperidin-4-yl)-5-cyclopropylisoxazole-3-carboxamide]: the IC50 came to 1.88 µM.

In the case of `CCOC(=O)CS(=O)(=O)N1CC[C@H](NC(=O)c2cc(C3CC3)on2)C[C@H]1C` [compound 320, ethyl 2-(((2R,4S)-4-(5-cyclopropylisoxazole-3-carboxamido)-2-methylpiperidin-1-yl)sulfonyl)acetate], the 50% inhibitory concentration (IC50) was more than 10 µM.

As for `C[C@@H]1C[C@@H](NC(=O)c2cc(C3CC3)on2)CCN1S(=O)(=O)c1ccccn1` [compound 321, 5-cyclopropyl-N-((2R,4S)-2-methyl-1-(pyridin-2-ylsulfonyl)piperidin-4-yl)isoxazole-3-carboxamide], the concentration for half-maximal inhibition (IC50) came to 4.47 µM.

With `CCCS(=O)(=O)N1CC[C@@H](NC(=O)c2cc(C3CC3)on2)C[C@@H]1C` [compound 322, 5-cyclopropyl-N-((2S,4R)-2-methyl-1-(propylsulfonyl)piperidin-4-yl)isoxazole-3-carboxamide], the IC50 is more than 10 µM.

For `CC(C)CS(=O)(=O)N1CC[C@@H](NC(=O)c2cc(C3CC3)on2)C[C@@H]1C` [compound 323, 5-cyclopropyl-N-((2S,4R)-1-(isobutylsulfonyl)-2-methylpiperidin-4-yl)isoxazole-3-carboxamide], the IC50 was more than 10 µM.

For the compound `C[C@H]1C[C@H](NC(=O)c2cc(C3CC3)on2)CCN1S(=O)(=O)N1CCN(C)CC1` [compound 324, 5-cyclopropyl-N-((2S,4R)-2-methyl-1-((4-methylpiperazin-1-yl)sulfonyl)piperidin-4-yl)isoxazole-3-carboxamide], the IC50 amounted to 1.65 µM.

As to `C[C@H]1C[C@H](NC(=O)c2cc(C3CC3)on2)CCN1S(=O)(=O)Cc1cccnc1` [compound 325, 5-cyclopropyl-N-((2S,4R)-2-methyl-1-((pyridin-3-ylmethyl)sulfonyl)piperidin-4-yl)isoxazole-3-carboxamide], the half-inhibitory concentration (IC50) was more than 10 µM.
